The subject of assay [1] is NCI-H460 (large cell lung carcinoma) cells. In words: antiproliferation assay (72 h, CELLTITER 96), NCI-H460. The class given is cell-based, human. The note with it: Homo sapiens. The protocol: (§1) All of the compounds shown in Table 3-Table 8 below were prepared synthetically as described in EXAMPLE I. The compounds were tested for their ability to inhibit the proliferation of human cancer cells in vitro as described in the following paragraph. Table 3-Table 8 list the IC50 values in the M14 and NCI-H460 human cancer cell lines. IC50 is defined as the concentration of compound necessary to achieve 50% of the maximum growth inhibition.
(§2) For the antiproliferation assay, NCI-H460 (large cell lung carcinoma) or M14 (amelanotic melanoma) cells were grown in RPMI-1640 with 10% FBS supplemented with L-glutamine and HEPES. Cells were seeded into 96-well plates at 5×10^2 to 5×10^4 cells/well and allowed to adhere overnight; the medium was then removed. A stock solution of test compound in DMSO was diluted in medium to generate a series of working solutions. Aliquots (100 μl) of the working solutions were then added to the appropriate test wells to expose cells to the final concentrations of compound in a total volume of 100 μl. Seven different concentrations were tested, with 2-5 wells per concentration. Camptothecin was used as a positive control; wells containing vehicle without compound were used as negative controls. Plates were kept for 72 h in a 37° C., 5% CO2 incubator. After incubation, viable cells were detected with the CELLTITER 96 AQueous Non-Radioactive Cell Proliferation Assay (Promega), and IC50 values were determined using GraphPad Prism 5 software.

Assay [2] concerns M14 (amelanotic melanoma) cells. Description: antiproliferation assay (72 h, CELLTITER 96), M14. It counts as cell-based, human. The note with it: Homo sapiens. The protocol:
as §1, §2

[3] abbreviates: NCI-H460, Table 5, read-out: NCI-H460 IC50.
Where [4] appears, read: NCI-H460, Table 3, read-out: NCI-H460 IC50.
Setting [5] is: NCI-H460, Table 7, read-out: NCI-H460 IC50.
Setting [6] is: NCI-H460, stereoisomers of compound 4, Table 1, read-out: IC50 NCI-H460.

In US9562031B1, “Phenethyldihydrobenzodioxolones and methods of use” (Sequoia Sciences, Inc., priority 2015, dated 2017) one finds IC50 data, which are given here for 26 compounds.

Molecules are shown by their SMILES. Like-named read-outs stand apart in the source and are kept apart here. Some results are limits rather than exact numbers.

By IC50 is commonly meant the midpoint of a concentration-inhibition curve. In the case of `C=CCC1C[C@]2([C@@H](C)Cc3cc(F)c(NC)cc3F)OCOC2=CC1=O` (mixture of isomers) [Compound 45, 6-allyl-7a-(1-(2,5-difluoro-4-(methylamino)phenyl)propan-2-yl)-7,7a-dihydrobenzo[d][1,3]dioxol-5(6H)-one], the IC50 in assay [1] (setting [3]) was found to be 340 nM; in assay [2] (Table 5), 98 nM.

In the case of `C=CC[C@H]1C[C@]2([C@H](C)Cc3ccc(OC)cc3F)OCOC2=CC1=O` (relative stereo) [Compound 3, 6-allyl-7a-(1-(2-fluoro-4-methoxyphenyl)propan-2-yl)-7,7a-dihydrobenzo[d][1,3]dioxol-5(6H)-one], the IC50 in assay [1] (setting [4]) came to 77 nM; in assay [2] (Table 3), 13 nM.

As for `C=CC[C@H]1C[C@]2([C@H](C)Cc3cc(F)c(NC)cc3F)OCOC2=CC1=O` (relative stereo) [Compound 44, 6-allyl-7a-(1-(2,5-difluoro-4-(methylamino)phenyl)propan-2-yl)-7,7a-dihydrobenzo[d][1,3]dioxol-5(6H)-one], the IC50 in assay [1] (setting [3]) is 68 nM; in assay [2] (Table 5) it was 16 nM.

On to `COc1ccc(C[C@H](C)[C@]23C[C@H](CC4CC4)C(=O)C=C2OCO3)c(F)c1` (relative stereo) [Compound 63, (7aR)-6-(cyclopropylmethyl)-7a-((S)-1-(2-fluoro-4-methoxyphenyl)propan-2-yl)-7,7a-dihydrobenzo[d][1,3]dioxol-5(6H)-one], for which the IC50 in assay [1] (setting [5]) is 1700 nM; in assay [2] (Table 7), more than 20000 nM.

For the compound `COc1ccc(C[C@H](C)[C@]23C[C@H](C/C=C/c4ccccc4)C(=O)C=C2OCO3)cc1OC` (relative stereo) [Compound 71, (6S,7aR)-6-cinnamyl-7a-((S)-1-(3,4-dimethoxyphenyl)propan-2-yl)-7,7a-dihydrobenzo[d][1,3]dioxol-5(6H)-one], the IC50 came to 14000 nM in assay [1] (setting [5]) and 6400 nM in assay [2] (Table 7).

As to `C=CC[C@H]1C[C@]2(C(C)Cc3cc(NC(C)=O)c(OC)cc3F)OCOC2=CC1=O` (stereo in doubt) [Compound 19, N-(5-((S)-2-((3aR,5S)-5-allyl-6-oxo-3a,4,5,6-tetrahydrobenzo[d][1,3]dioxol-3a-yl)propyl)-4-fluoro-2-methoxyphenyl)acetamide], the results for the IC50 in assay [1] (setting [4]) and in assay [2] (Table 3) were 71 nM and 52 nM, respectively.

On to `C=CC[C@H]1C[C@]2([C@@H](C)Cc3cc(O)c(OC)cc3F)OCOC2=CC1=O` [Compound 5, (6S,7aR)-6-allyl-7a-((S)-1-(2-fluoro-5-hydroxy-4-methoxyphenyl)propan-2-yl)-7,7a-dihydrobenzo[d][1,3]dioxol-5(6H)-one], for which the IC50 in assay [1] (setting [4]) is 33 nM; in assay [2] (Table 3) it was 9 nM.

With `C=CC[C@H]1C[C@]2([C@@H](C)Cc3cc(F)c(OC)cc3F)OCOC2=CC1=O` [Compound 7, (6S,7aR)-6-allyl-7a-((S)-1-(2,5-difluoro-4-methoxyphenyl)propan-2-yl)-7,7a-dihydrobenzo[d][1,3]dioxol-5(6H)-one], the IC50 in assay [1] (setting [4]) was found to be 59 nM; in assay [2] (Table 3) it was 23 nM.

Take `C=CC[C@H]1C[C@]2([C@@H](C)Cc3cc(C)c(OC)cc3F)OCOC2=CC1=O` [Compound 8, (6S,7aR)-6-allyl-7a-((S)-1-(2-fluoro-4-methoxy-5-methylphenyl)propan-2-yl)-7,7a-dihydrobenzo[d][1,3]dioxol-5(6H)-one]: the values for the IC50 in assay [1] (setting [4]) and in assay [2] (Table 3) were 650 nM and 230 nM, respectively.

`C=CC[C@H]1C[C@]2([C@H](C)Cc3cc(C(=O)OC)c(OC)cc3F)OCOC2=CC1=O` [Compound 9, methyl 5-((R)-2-((3aR,5S)-5-allyl-6-oxo-3a,4,5,6-tetrahydrobenzo[d][1,3]dioxol-3a-yl)propyl)-4-fluoro-2-methoxybenzoate]: the results for the IC50 in assay [1] (setting [4]) and in assay [2] (Table 3) were 260 nM and 210 nM, respectively.

For the compound `C=CC[C@H]1C[C@]2([C@@H](C)Cc3cc(C(=O)OC)c(OC)cc3F)OCOC2=CC1=O` [Compound 10, methyl 5-((S)-2-((3aR,5S)-5-allyl-6-oxo-3a,4,5,6-tetrahydrobenzo[d][1,3]dioxol-3a-yl)propyl)-4-fluoro-2-methoxybenzoate], the IC50 is 2200 nM in assay [1] (setting [4]) and more than 20000 nM in assay [2] (Table 3).

With `C=CC[C@H]1C[C@]2(C(C)Cc3cc(C(N)=O)c(OC)cc3F)OCOC2=CC1=O` (stereo partly drawn) [Compound 11, 5-(2-((3aR,5S)-5-allyl-6-oxo-3a,4,5,6-tetrahydrobenzo[d][1,3]dioxol-3a-yl)propyl)-4-fluoro-2-methoxybenzamide], the IC50 was 330 nM in assay [1] (setting [4]) and 4 nM in assay [2] (Table 3).

`C=CC[C@H]1C[C@]2([C@@H](C)Cc3cc(C(=O)NC)c(OC)cc3F)OCOC2=CC1=O` [Compound 12, 5-((S)-2-((3aR,5S)-5-allyl-6-oxo-3a,4,5,6-tetrahydrobenzo[d][1,3]dioxol-3a-yl)propyl)-4-fluoro-2-methoxy-N-methylbenzamide]: the IC50 in assay [1] (setting [4]) was determined as 520 nM; in assay [2] (Table 3), 240 nM.

With `C=CC[C@H]1C[C@]2([C@H](C)Cc3cc(C(=O)NC)c(OC)cc3F)OCOC2=CC1=O` [Compound 13, 5-((R)-2-((3aR,5S)-5-allyl-6-oxo-3a,4,5,6-tetrahydrobenzo[d][1,3]dioxol-3a-yl)propyl)-4-fluoro-2-methoxy-N-methylbenzamide], the IC50 in assay [1] (setting [4]) stood at 370 nM; in assay [2] (Table 3), 190 nM.

As for `C=CC[C@H]1C[C@]2([C@@H](C)Cc3cc(C#N)c(OC)cc3F)OCOC2=CC1=O` [Compound 14, 5-((S)-2-((3aR,5S)-5-allyl-6-oxo-3a,4,5,6-tetrahydrobenzo[d][1,3]dioxol-3a-yl)propyl)-4-fluoro-2-methoxybenzonitrile], the IC50 in assay [1] (setting [4]) was determined as 150 nM; in assay [2] (Table 3) it was 37 nM.

For the compound `C=CC[C@H]1C[C@]2([C@@H](C)Cc3cc(OC)c(OC)cc3F)OCOC2=CC1=O` [Compound 15, (6S,7aR)-6-allyl-7a-((S)-1-(2-fluoro-4,5-dimethoxyphenyl)propan-2-yl)-7,7a-dihydrobenzo[d][1,3]dioxol-5(6H)-one], the IC50 in assay [1] (setting [4]) came to 120 nM; in assay [2] (Table 3) it was 14 nM.

Take `C=CCOc1cc(C[C@@H](C)[C@]23C[C@H](CC=C)C(=O)C=C2OCO3)c(F)cc1OC` [Compound 16, (6S,7aR)-6-allyl-7a-((R)-1-(5-(allyloxy)-2-fluoro-4-methoxyphenyl)propan-2-yl)-7,7a-dihydrobenzo[d][1,3]dioxol-5(6H)-one]: the IC50 worked out at 620 nM in assay [1] (setting [4]) and 520 nM in assay [2] (Table 3).

As for `C=CC[C@H]1C[C@]2([C@@H](C)Cc3cc(N)c(OC)cc3F)OCOC2=CC1=O` [Compound 17, (6S,7aR)-6-allyl-7a-((S)-1-(5-amino-2-fluoro-4-methoxyphenyl)propan-2-yl)-7,7a-dihydrobenzo[d][1,3]dioxol-5(6H)-one], the figures for the 50% inhibitory concentration (IC50) in assay [1] (setting [4]) and in assay [2] (Table 3) were 160 nM and 29 nM, respectively.

Regarding `C=CC[C@H]1C[C@]2([C@@H](C)Cc3cc(NC(C)=O)c(OC)cc3F)OCOC2=CC1=O` [Compound 18, N-(5-((S)-2-((3aR,5S)-5-allyl-6-oxo-3a,4,5,6-tetrahydrobenzo[d][1,3]dioxol-3a-yl)propyl)-4-fluoro-2-methoxyphenyl)acetamide], the IC50 in assay [1] (setting [4]) came to 410 nM; in assay [2] (Table 3), 160 nM.

With `C=CC[C@H]1C[C@]2([C@@H](C)Cc3ccc(OC)c(OC)c3F)OCOC2=CC1=O` [Compound 20, (6S,7aR)-6-allyl-7a-((S)-1-(2-fluoro-3,4-dimethoxyphenyl)propan-2-yl)-7,7a-dihydrobenzo[d][1,3]dioxol-5(6H)-one], inhibition in assay [2] (Table 3) was half-maximal at 710 nM (IC50).

Regarding `C=CC[C@H]1C[C@]2([C@H](C)Cc3ccc(OC)c(OC)c3F)OCOC2=CC1=O` [Compound 21, (6S,7aR)-6-allyl-7a-((R)-1-(2-fluoro-3,4-dimethoxyphenyl)propan-2-yl)-7,7a-dihydrobenzo[d][1,3]dioxol-5(6H)-one], the IC50 in assay [1] (setting [4]) worked out at 3000 nM; in assay [2] (Table 3) it was 2800 nM.

As for `C=CC[C@H]1C[C@]2([C@H](C)Cc3ccc(OC)c(F)c3F)OCOC2=CC1=O` [Compound 22, (6S,7aR)-6-allyl-7a-((R)-1-(2,3-difluoro-4-methoxyphenyl)propan-2-yl)-7,7a-dihydrobenzo[d][1,3]dioxol-5(6H)-one], the IC50 in assay [1] (setting [4]) amounted to 2400 nM; in assay [2] (Table 3), 900 nM.

As for `C=CC[C@H]1C[C@]2([C@H](C)Cc3c(F)cc(OC)cc3F)OCOC2=CC1=O` [Compound 23, (6S,7aR)-6-allyl-7a-((R)-1-(2,6-difluoro-4-methoxyphenyl)propan-2-yl)-7,7a-dihydrobenzo[d][1,3]dioxol-5(6H)-one], the IC50 in assay [1] (setting [4]) is 720 nM; in assay [2] (Table 3), 270 nM.

In the case of `C=CC[C@H]1C[C@]2([C@H](C)Cc3ccc(OC)c(OC)c3)OCOC2=CC1=O` [Compound 24, (6S,7aR)-6-allyl-7a-((R)-1-(3,4-dimethoxyphenyl)propan-2-yl)-7,7a-dihydrobenzo[d][1,3]dioxol-5(6H)-one], the IC50 was found to be 320 nM in assay [1] (NCI-H460, Table 4, read-out: NCI-H460 IC50) and 110 nM in assay [2] (Table 4).

With `C=CC[C@@H]1C[C@]2([C@H](C)Cc3cc(O)c(OC)cc3F)OCOC2=CC1=O` [SQ 1378], the IC50 in assay [1] (setting [6]) was 1900 nM.

With `C=CC[C@@H]1C[C@]2([C@@H](C)Cc3cc(O)c(OC)cc3F)OCOC2=CC1=O` [SQ 1389], the IC50 in assay [1] (setting [6]) is 2500 nM.
